Legend:
Assay type in all cases: cell-based, mouse
3T3-L1 adipocytes [1] = assay: Intracellular Ca2+ in cultured adipocytes (fura-2)
Experimental: 3T3-L1 preadipocytes were incubated at a density of 8000 cells/cm^2 (10 cm^2 dish) and grown in Dulbecco's modified Eagle's medium (DMEM) containing 10% FBS and antibiotics (adipocyte medium) at 37° C. in 5% CO2 in air. Confluent preadipocytes were induced to differentiate with a standard differentiation medium consisting of DMEM-F10 (1:1, vol/vol) medium supplemented with 1% FBS, 1 μM dexamethasone, IBMX (0.5 mM) and antibiotics (1% Penicillin-Streptomycin). Preadipocytes were maintained in this differentiation medium for 3 days and subsequently cultured in adipocyte medium. Cultures were re-fed every 2-3 days to allow 90% of cells to reach full differentiation before conducting chemical treatment. Chemicals were freshly diluted in adipocyte medium before treatment. Cells were washed with fresh adipocyte medium, re-fed with medium containing the different treatments, and incubated at 37° C. in 5% CO2 in air before analysis. Cell viability was measured via trypan blue exclusion. [Ca^2+]i in adipocytes was measured using a fura-2 dual-wavelength fluorescence imaging system. Cells were plated in 35-mm dishes […]). […] Cells were loaded with fura-2 acetoxymethyl ester (fura-2 AM) (10 μmol/L) in the same buffer for 2 h at 37° C. in a dark incubator with 5% CO2. To remove extracellular dye, cells were rinsed with HBSS three times and then post-incubated at room temperature for an additional 1 h for complete hydrolysis of cytoplasmic fura-2 AM. The dishes with dye-loaded cells were mounted on the stage of Nikon TMS-F fluorescence inverted microscope with a Cohu model 4915 charge-coupled device (CCD) camera. Fluorescent images were captured alternatively at excitation wavelengths of 340 and 380 nm with an emission wavelength of 520 nm. After establishment of a stable baseline, the responses to 1α, 25-(OH)2-D3 was determined. [Ca^2+]i was calculated using a ratio equation as described previously. Each analysis evaluated responses of 5 representative whole cells. Images were analyzed with […]2 version 4.62 imaging software (Intracellular Imaging, Cincinnati, Ohio). […]

3T3-L1 adipocytes [2] = assay: Cell proliferation / DNA synthesis in cultured adipocytes (CyQUANT)
Experimental: (§1) 3T3-L1 preadipocytes were incubated at a density of 8000 cells/cm^2 (10 cm^2 dish) and grown in Dulbecco's modified Eagle's medium (DMEM) containing 10% FBS and antibiotics (adipocyte medium) at 37° C. in 5% CO2 in air. Confluent preadipocytes were induced to differentiate with a standard differentiation medium consisting of DMEM-F10 (1:1, vol/vol) medium supplemented with 1% FBS, 1 μM dexamethasone, IBMX (0.5 mM) and antibiotics (1% Penicillin-Streptomycin). Preadipocytes were maintained in this differentiation medium for 3 days and subsequently cultured in adipocyte medium. Cultures were re-fed every 2-3 days to allow 90% of cells to reach full differentiation before conducting chemical treatment. Chemicals were freshly diluted in adipocyte medium before treatment. Cells were washed with fresh adipocyte medium, re-fed with medium containing the different treatments, and incubated at 37° C. in 5% CO2 in air before analysis. Cell viability was measured via trypan blue exclusion. Cells were plated in DMEM with different treatment in duplicate in 96-well plates. After 48 h, a CyQUANT Cell Proliferation Kit (Molecular Probes, Eugene, Oreg.) was used following the manufacturer's protocol. a microplate fluorometer (Packard Instrument Company, Inc., Downers Grove, Ill.) was used to measure CyQUANT fluorescence. Cell viability was determined by Trypan blue exclusion examination.

3T3-L1 adipocytes [3] = assay: Intracellular ROS generation in cultured adipocytes (H2-DCFDA); details: α-tocopherol 1 μmol/L added, all groups
Experimental: as §1, with “exclusion. […]” for “exclusion.”, “loaded” for “plated in DMEM”, “H2-DCFDA (2 μmol/L) 30 minute before the end of the incubation period (48 h).” for “different treatment in duplicate in 96-well plates.”, “washing twice with PBS, cells were scraped and disrupted by sonication on ice (20 s). Fluorescence (emission 543 nm or 527 nm) and DNA content were then measured as described previously. The intensity of fluorescence” for “48 h, a CyQUANT Cell Proliferation Kit (Molecular Probes, Eugene, Oreg.)”, “expressed as arbitrary units per ng DNA.” for “used following the manufacturer's protocol. a microplate fluorometer (Packard Instrument Company, Inc., Downers Grove, Ill.) was used to measure CyQUANT fluorescence. Cell viability was determined by Trypan blue exclusion examination.”

adiponectin = assay: Adiponectin expression in 3T3-L1 adipocytes; details: 48 h
Experimental: (§2) 3T3-L1 pre-adipocytes were incubated at a density of 8000 cells/cm^2 (10 cm^2 dish) and grown in Dulbecco's modified Eagle's medium (DMEM) containing 10% FBS and antibiotics (adipocyte medium) at 37° C. in 5% CO2 in air. Confluent pre-adipocytes were induced to differentiate with a standard differentiation medium consisting of DMEM-F10 (1:1, vol/vol) medium supplemented with 1% fetal bovine serum (FBS), 1 μM dexamethasone, isobutylmethylxanthine (IBMX) (0.5 mM) and antibiotics (1% Penicillin-Streptomycin). Pre-adipocytes were maintained in this differentiation medium for 3 days and subsequently cultured in adipocyte medium. Cultures were re-fed every 2-3 days to allow 90% cells to reach fully differentiation before conducting chemical treatment. […] Cell viability was measured via trypan blue exclusion. Adipocyte and muscle 18s, TNFα, IL-6, IL-8, IL-15 and adiponectin were quantitatively measured using a smart cycler real-time PCR system (Cepheid, Sunnyvale, Calif.) with a TaqMan 1000 Core Reagent Kit (Applied Biosystems, Branchburg, N.J.). […] Reactions of quantitative RT-PCR for standards and unknown samples were also performed according to the instructions of Smart Cycler System (Cepheid, Sunnyvale, Calif.) and TaqMan Real Time PCR Core Kit (Applied Biosystems, Branchburg, N.J.). The mRNA quantitation for each sample was further normalized using the corresponding 18s quantitation.

IL-15 = IL-15 expression in 3T3-L1 adipocytes; details: 1 μmol/L α±tocopherol added to 100 nmol/L H2O2, 48 h; P=0.043
Experimental: as §2

Cc1c(C)c2c(c(C)c1O)CC[C@@](C)(CCC[C@H](C)CCC[C@H](C)CCCC(C)C)O2 [α-tocopherol] was tested, and the “effect on H2O2 induced increase in [Ca2+]i” value (3T3-L1 adipocytes [1]; α-tocopherol 1 μmol/L plus H2O2, 4 hours) was “reversed”, the “effect on glucose induced increase in [Ca2+]i” value (3T3-L1 adipocytes [1]; α-tocopherol 1 μmol/L plus glucose 30 mmol/L, 4 hours) was “partially blocked” and the “effect on DNA synthesis” value (3T3-L1 adipocytes [2]; α-tocopherol 1 μmol/L added, all groups) was “inhibited”. For the same compound, the “effect on H2O2 induced DNA synthesis” value (3T3-L1 adipocytes [2]; α-tocopherol 1 μmol/L or nifedipine 10 μmol/L plus H2O2, 48 hours) was “completely blocked”, the “effect on ROS production” value (3T3-L1 adipocytes [3]) was “inhibited” and the “effect on adiponectin production” value (adiponectin) was “increased”. The “increase in IL-15 as compared to H2O2-treated cells” value (IL-15) was 2.2 fold.
